Assay results as given in the supplement of paper PMC10307832.

How the values were obtained:
Experiment in all cases: relative viability (nuclei count vs DMSO), 5 days (fraction); higher = more cells survive
BMX-IN-1 + Crizotinib = compound: C=CC(=O)Nc1cc(-n2c(=O)ccc3cnc4ccc(-c5ccc(NS(C)(=O)=O)cc5)cc4c32)ccc1C [BMX-IN-1] + C[C@@H](Oc1cc(-c2cnn(C3CCNCC3)c2)cnc1N)c1c(Cl)ccc(F)c1Cl [Crizotinib] (partner 1 µM)
In short: (§1)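 A single step with final 0.05% Triton X-100, 1% formaldehyde and 1 ug/ml Hoechst fixed the cells and stained nuclei 5 days after treatment. Lung cancer cell lines in 1536-well plates had been treated by pin tool the day after seeding with one drug alone or a fixed anchor-drug dose plus five library-drug doses (not always all listed) in √10 steps, and nuclei were counted on 4× images. Relative viability is the ratio of nuclei in treated wells to nuclei in vehicle wells, taken as the median of duplicate plates.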

Ibrutinib + Linsitinib = compound: C=CC(=O)N1CCC[C@@H](n2nc(-c3ccc(Oc4ccccc4)cc3)c3c(N)ncnc32)C1 [Ibrutinib] + C[C@]1(O)C[C@@H](c2nc(-c3ccc4ccc(-c5ccccc5)nc4c3)c3c(N)nccn32)C1 [Linsitinib] (partner 1 µM)
In short: as §1

BMX-IN-1 + Navitoclax = compound: C=CC(=O)Nc1cc(-n2c(=O)ccc3cnc4ccc(-c5ccc(NS(C)(=O)=O)cc5)cc4c32)ccc1C [BMX-IN-1] + CC1(C)CCC(c2ccc(Cl)cc2)=C(CN2CCN(c3ccc(C(=O)NS(=O)(=O)c4ccc(N[C@H](CCN5CCOCC5)CSc5ccccc5)c(S(=O)(=O)C(F)(F)F)c4)cc3)CC2)C1 [Navitoclax] (partner 0.5 µM)
In short: as §1

Ibrutinib + Palbociclib = compound: C=CC(=O)N1CCC[C@@H](n2nc(-c3ccc(Oc4ccccc4)cc3)c3c(N)ncnc32)C1 [Ibrutinib] + CC(=O)c1c(C)c2cnc(Nc3ccc(N4CCNCC4)cn3)nc2n(C2CCCC2)c1=O [Palbociclib] (partner 0.5 µM)
In short: as §1

| Cell Line | relative viability (BMX-IN-1 + Crizotinib; first compound 0.02 µM) | relative viability (BMX-IN-1 + Crizotinib; first compound 0.2 µM) | relative viability (BMX-IN-1 + Crizotinib; first compound 0.6325 µM) | relative viability (BMX-IN-1 + Crizotinib; first compound 2 µM) | relative viability (Ibrutinib + Linsitinib; first compound 0.005 µM) | relative viability (Ibrutinib + Linsitinib; first compound 0.05 µM) | relative viability (Ibrutinib + Linsitinib; first compound 0.1581 µM) | relative viability (Ibrutinib + Linsitinib; first compound 0.5 µM) | relative viability (BMX-IN-1 + Navitoclax; first compound 0.02 µM) | relative viability (BMX-IN-1 + Navitoclax; first compound 0.2 µM) | relative viability (BMX-IN-1 + Navitoclax; first compound 0.6325 µM) | relative viability (BMX-IN-1 + Navitoclax; first compound 2 µM) | relative viability (Ibrutinib + Palbociclib; first compound 0.005 µM) | relative viability (Ibrutinib + Palbociclib; first compound 0.01581 µM) | relative viability (Ibrutinib + Palbociclib; first compound 0.05 µM) | relative viability (Ibrutinib + Palbociclib; first compound 0.1581 µM) | relative viability (Ibrutinib + Palbociclib; first compound 0.5 µM) | relative viability (Ibrutinib + Linsitinib; first compound 0.01581 µM) |
| --- | --- | --- | --- | --- | --- | --- | --- | --- | --- | --- | --- | --- | --- | --- | --- | --- | --- | --- |
| Calu-6 | 0.925 | 0.886 | 0.927 | 0.988 | 0.991 | 0.928 | 1.04 | 0.888 | 1.08 | 1.06 | 0.902 | 0.823 |  |  |  |  |  |  |
| ChaGo-K-1 | 1.39 | 1.07 | 1.18 | 1.17 |  |  |  |  | 0.937 | 0.988 | 1.27 | 0.531 | 0.94 | 0.886 | 0.953 | 0.869 | 0.901 |  |
| EBC-1 | 0.195 | 0.202 | 0.162 | 0.197 | 0.848 | 0.825 | 0.864 | 0.952 | 0.425 | 0.341 | 0.434 | 0.329 |  |  |  |  |  | 1 |
| EKVX | 1.18 | 1.29 | 0.882 | 1.01 | 0.893 | 1.12 | 1.05 | 0.613 | 0.979 | 1.13 | 0.966 | 1 | 0.304 | 0.314 | 0.259 | 0.269 | 0.155 | 0.944 |
| EMC-BAC-2 | 0.858 | 0.877 | 0.797 | 0.718 | 0.777 | 0.637 | 0.795 | 0.586 | 1.41 | 1.35 | 1.08 | 1.19 | 0.509 | 0.493 | 0.566 |  | 0.497 | 0.703 |
| EPLC-272H | 1.04 | 0.968 | 0.96 | 0.96 |  | 1.31 | 1.25 | 0.771 | 1.25 | 1.22 | 1.08 | 1.18 |  | 0.282 | 0.312 | 0.316 | 0.272 | 1.07 |
| H3255 | 0.969 | 1.11 | 0.968 | 0.924 | 0.925 | 0.685 | 1.06 | 0.227 | 0.51 | 0.595 | 0.544 | 0.633 | 0.312 | 0.328 | 0.293 | 0.324 | 0.26 | 0.772 |
| HARA | 1.39 | 1.24 | 1.16 | 1.09 | 1.09 | 0.751 | 0.904 |  | 1.22 | 1.36 | 1.09 | 1.08 | 0.284 | 0.217 | 0.241 | 0.254 | 0.223 | 0.818 |
| HCC-15 | 0.991 | 0.945 | 0.953 | 0.762 | 0.883 | 0.935 | 0.89 | 0.835 | 0.768 | 0.726 | 0.706 | 0.73 | 0.788 | 0.705 | 0.742 | 0.706 | 0.73 | 0.85 |
